According to article PMC5642598, “Histone deacetylase inhibitor thailandepsin-A activates Notch signaling and suppresses neuroendocrine cancer cell growth in vivo” (Oncotarget, 2017):

Target: T1, HDAC1 (Homo sapiens, UniProt Q13547)
T1 construct: HDAC1-NanoLuc fusion protein
Assay: NanoBRET target engagement in live TT cells, competitive displacement of HDAC Tracer-01
Format: cell-based
Source text: NanoBRET target engagement in live TT cells, competitive displacement of HDAC Tracer-01 on HDAC1 | TDP-A dose-dependently attenuated BRET from intracellular HDAC1-NanoLuc fusion protein (Figure 1B) in low nanomolar concentrations

T1 sequence (Q13547 whole entry, the tested form may be a part): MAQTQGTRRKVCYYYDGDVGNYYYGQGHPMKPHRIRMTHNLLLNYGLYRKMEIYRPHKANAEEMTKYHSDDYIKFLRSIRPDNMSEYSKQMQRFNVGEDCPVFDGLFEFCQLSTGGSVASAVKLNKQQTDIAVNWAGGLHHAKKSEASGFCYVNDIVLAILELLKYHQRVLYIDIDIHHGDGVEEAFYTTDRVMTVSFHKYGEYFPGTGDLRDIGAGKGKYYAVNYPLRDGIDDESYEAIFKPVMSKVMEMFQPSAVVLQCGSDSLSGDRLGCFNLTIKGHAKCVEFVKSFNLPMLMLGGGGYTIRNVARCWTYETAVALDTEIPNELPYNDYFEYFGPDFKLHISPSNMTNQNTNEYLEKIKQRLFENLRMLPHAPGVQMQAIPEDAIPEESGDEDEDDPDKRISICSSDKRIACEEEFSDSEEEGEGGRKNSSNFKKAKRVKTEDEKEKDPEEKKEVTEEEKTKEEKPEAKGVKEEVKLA

EC50: 6.8 nM
SMILES: CC[C@H](C)[C@H]1NC(=O)[C@H]2CSSCC/C=C/[C@H](CC(=O)N[C@H](CCSC)C(=O)N2)OC(=O)C[C@@H]1O [TDP-A, thailandepsin A]
